In patent US20030109418A1, “Methods for identifying compounds for inhibition of neoplastic lesions, and pharmaceutical compositions containing such compounds” (priority 1999, published 2003):

System: β-catenin and PKG levels in SW480 cells
Test: Western blot of β-catenin and PKG in SW480
Type: cell-based, human
Method: SW480 cells treated with exisulind as described previously are harvested from the microfuge tubes by rinsing once with ice-cold PBS. The cells are lysed by modified RIPA buffer for 15 minutes with agitation. The cell lysate is spun down in a cold room. The supernatants are transferred to fresh microcentrifuge tubes immediately after spinning. BioRad DC Protein Assay (Temecula, Calif.) is performed to determine the protein concentrations in samples. The samples are normalized for protein concentration, as described above.
50 μg of each sample is loaded to 10% SDS gel. SDS-PAGE is performed, and the proteins then are transferred to a nitrocellulose membrane. The blotted nitrocellulose membrane are blocked in freshly prepared TBST containing 5% nonfat dry milk for one hour at room temperature with constant agitation.
A goat-anti-PKG primary antibody is diluted to the recommended concentration/dilution in fresh TBST/5% nonfat dry milk. The nitrocellulose membrane is placed in the primary antibody solution and incubated one hour at room temperature with agitation. The nitrocellulose membrane is washed three times for ten minutes each with TBST. […]
This observation was made by culturing SW480 cells with either 200, 400 or 600 μM exisulind or vehicle (0.1% DMSO). […] Immuno-reactive protein can be detected by Western blot. […]

CC1=C(CC(=O)O)c2cc(F)ccc2/C1=C\c1ccc(S(C)(=O)=O)cc1 [Exisulind, 5-fluoro-2-methyl-1-(p-methylsulfonylbenzylidene)-3-indenylacetic acid]
reduction of expression of β-catenin compared to control (SW480, 200, 400 or 600 μM, 48 hours, Western blot): 50%
PKG level by Western blot (SW480, 48 hours): increase of PKG
